The subject of experiment [1] is methicillin-resistant Staphylococcus aureus (MRSA). The experiment in a line: Effect on decreasing antibiotic resistance by concomitant use of FNQ3, MRSA. The note with it: for MIC: Staphylococcus aureus, 24 h, read-out: MIC of antibiotic, −FNQ3; for MIC of antibiotic, +FNQ3: concomitant FNQ3, final concentration 0.5 μg/ml; for decrease of the resistance of MRSA against the antibiotic (fraction of MIC): with the Compound (FNQ3) 0.5 μg/ml.

Experiment [2] deals with methicillin-sensitive Staphylococcus aureus (MSSA). The experiment in a line: Effect on decreasing antibiotic resistance by concomitant use of FNQ3, MSSA. The note with it: for MIC: Staphylococcus aureus, 24 h, read-out: MIC of antibiotic, −FNQ3; for MIC of antibiotic, +FNQ3: concomitant FNQ3, final concentration 0.5 μg/ml.
The test system of experiment [3] is fluconazole-resistant Candida albicans (FRCA). The experiment in a line: Proliferation inhibitory test for Candida albicans (agar medium MIC), FRCA. As to conditions: for MIC: Candida albicans.
Experiment [4] relates to fluconazole-sensitive Candida albicans (FSCA). The experiment in a line: Proliferation inhibitory test for Candida albicans (agar medium MIC), FSCA.
The test system of experiment [5] is methicillin-resistant Staphylococcus aureus (MRSA). In words: Proliferation inhibitory test for Staphylococcus aureus (agar medium MIC), MRSA. As to conditions: for MIC: Staphylococcus aureus, MRSA.
For experiment [6], the system named is methicillin-sensitive Staphylococcus aureus (MSSA). In words: Proliferation inhibitory test for Staphylococcus aureus (agar medium MIC), MSSA. The note with it: for MIC: Staphylococcus aureus, MSSA.
Another experiment has as its system C. pneumoniae. The experiment in a line: microbe, parasite or virus in culture. In kind it is cell-based. As to conditions: Chlamydia pneumoniae.
A further experiment deals with C. trachomatis. In words: microbe, parasite or virus in culture. In kind it is cell-based. As to conditions: Chlamydia trachomatis.
For a further experiment, the system named is C. psittaci. The experiment in a line: microbe, parasite or virus in culture. In kind it is cell-based. As to conditions: Chlamydia psittaci, strain Cal 10.
Experiment [7] deals with all tested strains of Chlamydia. Format: cell-based. As to conditions: tendency; McCoy and WI38 versus HeLa229.
A further experiment deals with Staphylococcus aureus. In words: FNQ3 alone, growth of Staphylococcus aureus. As to conditions: 0.5 μg/ml.

In brackets after ≈: the same amount, converted by molar mass. Some results are limits rather than exact numbers.

Take `N[C@@H](C(=O)N[C@@H]1C(=O)N2C(C(=O)O)=C(Cl)CS[C@H]12)c1ccccc1` [cefaclor]: in [1], the MIC amounted to 64 µg/mL; the “MIC of antibiotic, +FNQ3” value was 16 µg/mL; the “decrease of the resistance of MRSA against the antibiotic (fraction of MIC)” value (“decrease of the resistance … (fraction of MIC)” below) was “½ to ¼”. In [2], the MIC turned out to be 1 µg/mL and the “MIC of antibiotic, +FNQ3” value came out at 1 µg/mL.
On to `CC[C@H]1OC(=O)[C@H](C)[C@@H](O[C@H]2C[C@@](C)(OC)[C@@H](O)[C@H](C)O2)[C@H](C)[C@@H](O[C@@H]2O[C@H](C)C[C@H](N(C)C)[C@H]2O)[C@](C)(OC)C[C@@H](C)C(=O)[C@H](C)[C@@H](O)[C@]1(C)O` [Clarithromycin], for which, in [1], the MIC stood at 16 µg/mL and the “MIC of antibiotic, +FNQ3” value stood at 16 µg/mL. Besides, in experiment [2], the MIC amounted to 0.5 µg/mL and the “MIC of antibiotic, +FNQ3” value is 0.5 to 1 µg/mL.
Regarding `CN[C@H](CC(C)C)C(=O)N[C@H]1C(=O)N[C@@H](CC(N)=O)C(=O)N[C@H]2C(=O)N[C@H]3C(=O)N[C@H](C(=O)N[C@H](C(=O)O)c4cc(O)cc(O)c4-c4cc3ccc4O)[C@H](O)c3ccc(c(Cl)c3)Oc3cc2cc(c3O[C@@H]2O[C@H](CO)[C@@H](O)[C@H](O)[C@H]2O[C@H]2C[C@](C)(N)[C@H](O)[C@H](C)O2)Oc2ccc(cc2Cl)[C@H]1O` [Vancomycin], in experiment [1], the MIC was 2.5 µg/mL; the “MIC of antibiotic, +FNQ3” value lay in the range of 0.6 to 1.25 µg/mL; the “decrease of the resistance … (fraction of MIC)” value is “½ to ¼”. Further, in [2], the MIC is 0.6 µg/mL and the “MIC of antibiotic, +FNQ3” value came to 0.6 µg/mL.
Turning to `Cc1cc2c(o1)C(=O)c1c(O)cccc1C2=O` [FNQ13, 8-hydroxy-2-methylnaphtho[2,3-b]furan-4,9-dione], the MIC worked out at 2 µg/mL (≈ 8.76 µM) in [3] (FRCA strain CA383); 8 µg/mL (≈ 35.1 µM) in [3] (FRCA strain CA8941); 4 µg/mL (≈ 17.5 µM) in experiment [3] (FRCA strain DUNC136); 2 µg/mL (≈ 8.76 µM) in [3] (FRCA strain MCV7); 4 µg/mL (≈ 17.5 µM) in [3] (FRCA strain S78941); 2 µg/mL (≈ 8.76 µM) in experiment [3] (FRCA strain T77042). Further, the MIC in experiment [4] (Candida albicans) was determined as 4 µg/mL (≈ 17.5 µM); in experiment [4] (Candida albicans, TIMM0239), 2 µg/mL (≈ 8.76 µM); in experiment [4] (Candida albicans, TIMM1756), 2 µg/mL (≈ 8.76 µM); in [4] (Candida albicans, TIMM1850), 2 µg/mL (≈ 8.76 µM); in experiment [4] (FSCA strain TA) it was 4 µg/mL (≈ 17.5 µM); in experiment [5] (MRSA strain 1 (Patient)), 6.25 µg/mL (≈ 27.4 µM). Besides, the MIC in experiment [5] (MRSA strain 2 (Patient)) is 3.13 µg/mL (≈ 13.7 µM); in experiment [5] (MRSA strain 3 (Patient)), 3.13 µg/mL (≈ 13.7 µM); in [5] (MRSA strain 4 (Patient)) it was 12.5 µg/mL (≈ 54.8 µM); in experiment [5] (MRSA strain 5 (Patient)) it was 12.5 µg/mL (≈ 54.8 µM); in experiment [5] (MRSA strain 6 (Patient)), 3.13 µg/mL (≈ 13.7 µM); in [5] (MRSA strain 7 (Patient)), 6.25 µg/mL (≈ 27.4 µM). For the same compound, the MIC is 3.13 µg/mL (≈ 13.7 µM) in experiment [5] (MRSA strain 8 (Patient)); 6.25 µg/mL (≈ 27.4 µM) in experiment [5] (MRSA strain 9 (Patient)); 3.13 µg/mL (≈ 13.7 µM) in experiment [5] (MRSA strain 10 (Patient)); 6.25 µg/mL (≈ 27.4 µM) in [5] (MRSA strain 11 (Patient)); 1.56 µg/mL (≈ 6.84 µM) in experiment [5] (MRSA strain 12 (N133)); 1.56 µg/mL (≈ 6.84 µM) in [5] (MRSA strain 13 (OF4)). Also, the MIC in [5] (MRSA strain 14 (N295)) stood at 6.25 µg/mL (≈ 27.4 µM); in experiment [5] (read-out: MIC, Mean ± standard deviation, mean over 14 MRSA strains), 5.36 µg/mL (≈ 23.5 µM); in experiment [6] (MSSA strain 1 (Patient)), 25 µg/mL (≈ 110 µM); in [6] (MSSA strain 2 (Patient)), 6.25 µg/mL (≈ 27.4 µM); in experiment [6] (MSSA strain 3 (Patient)), 12.5 µg/mL (≈ 54.8 µM); in [6] (MSSA strain 4 (Patient)) it was 12.5 µg/mL (≈ 54.8 µM). The MIC in experiment [6] (MSSA strain 5 (Patient)) is 12.5 µg/mL (≈ 54.8 µM); in experiment [6] (MSSA strain 6 (Patient)), 6.25 µg/mL (≈ 27.4 µM); in experiment [6] (MSSA strain 7 (Patient)), 6.25 µg/mL (≈ 27.4 µM); in [6] (MSSA strain 8 (Patient)), 12.5 µg/mL (≈ 54.8 µM); in [6] (MSSA strain 9 (Patient)), 12.5 µg/mL (≈ 54.8 µM); in [6] (MSSA strain 10 (Patient)), 12.5 µg/mL (≈ 54.8 µM). The MIC in experiment [6] (MSSA strain 11 (Patient)) came out at 12.5 µg/mL (≈ 54.8 µM); in [6] (MSSA strain 12 (1840)), 12.5 µg/mL (≈ 54.8 µM); in experiment [6] (read-out: MIC, Mean ± standard deviation, mean over 12 MSSA strains, p < 0.01) it was 12 µg/mL (≈ 52.5 µM). The “antibacterial activity against FRCA compared with FSCA” value in [3] (FRCA (resistant strain) versus FSCA (sensitive strain)) was “same degree of antibacterial activity”. The “MIC, Mean ± standard deviation” value was found to be 5.36 ± 3.5 µg/mL (≈ 23.5 µM) in experiment [5] (mean over 14 MRSA strains) and 11.98 ± 4.9 µg/mL (≈ 52.5 µM) in experiment [6] (mean over 12 MSSA strains, p < 0.01).
With `CC1(C)S[C@@H]2[C@H](NC(=O)[C@H](N)c3ccccc3)C(=O)N2[C@H]1C(=O)O` [Ampicillin], in experiment [1], the MIC turned out to be 32 µg/mL; the “MIC of antibiotic, +FNQ3” value was 4 µg/mL; the “decrease of the resistance … (fraction of MIC)” value was “½ to ¼”. Besides, in [2], the MIC was determined as 32 µg/mL and the “MIC of antibiotic, +FNQ3” value was in the range of 16 to 32 µg/mL.
Regarding `C[C@H]1COc2c(N3CCN(C)CC3)c(F)cc3c(=O)c(C(=O)O)cn1c23` [Levofloxacin], the values for the MIC in experiment [1] and in experiment [2] were 8 µg/mL and 0.25 µg/mL, respectively. The results for the “MIC of antibiotic, +FNQ3” value in [1] and in [2] were 4 µg/mL and 0.25 µg/mL, respectively.
On to `OC(Cn1cncn1)(Cn1cncn1)c1ccc(F)cc1F` [FLCZ, fluconazole, reference compound], for which the MIC in experiment [3] (FRCA strain CA383) was greater than 64 µg/mL; in experiment [3] (FRCA strain CA8941), greater than 64 µg/mL; in experiment [3] (FRCA strain DUNC136) it was greater than 64 µg/mL; in [3] (FRCA strain MCV7), 32 µg/mL (≈ 104 µM); in [3] (FRCA strain S78941), greater than 64 µg/mL; in experiment [3] (FRCA strain T77042), greater than 64 µg/mL. In addition, the MIC was determined as 0.03 µg/mL (≈ 0.098 µM) in [4] (Candida albicans); 0.13 µg/mL (≈ 0.424 µM) in [4] (Candida albicans, TIMM0239); 0.06 µg/mL (≈ 0.196 µM) in experiment [4] (Candida albicans, TIMM1756); 0.06 µg/mL (≈ 0.196 µM) in [4] (Candida albicans, TIMM1850); 0.03 µg/mL (≈ 0.098 µM) in experiment [4] (FSCA strain TA).
In the case of `Cc1cc2c(o1)C(=O)c1ccccc1C2=O` [FNQ3, 2-methylnaphtho[2,3-b]furan-4,9-dione], the MIC with C. pneumoniae (strain KKpn-1, HeLa229 cells) stood at 0.25 µg/mL (≈ 1.18 µM); with C. pneumoniae (strain KKpn-1, McCoy cells) it was 0.25 µg/mL (≈ 1.18 µM); with C. pneumoniae (strain TW-183, HeLa229 cells), 0.6 µg/mL (≈ 2.83 µM); with C. trachomatis (strain D, HeLa229 cells), 1 µg/mL (≈ 4.71 µM); in the experiment on C. trachomatis (strain F, HeLa229 cells), 1 µg/mL (≈ 4.71 µM); against C. trachomatis (strain L2, HeLa229 cells), 1 µg/mL (≈ 4.71 µM). For the same compound, the MIC stood at 0.6 µg/mL (≈ 2.83 µM) against C. trachomatis (strain L2, McCoy cells); 0.5 µg/mL (≈ 2.36 µM) in the experiment on C. trachomatis (strain L2, WI 38 cells); 1 µg/mL (≈ 4.71 µM) against C. psittaci (HeLa229 cells); 0.5 µg/mL (≈ 2.36 µM) against C. psittaci (McCoy cells); 0.25 µg/mL (≈ 1.18 µM) against C. psittaci (WI 38 cells). Also, the “MIC with McCoy and WI38 cells relative to HeLa229 cells” value in [7] is listed as “approximately ½”. For the same compound, the “influence on the growth of Staphylococcus aureus” value in the experiment with Staphylococcus aureus is reported as “no influence on the growth”.
As for `CN(C)c1ccc(O)c2c1C[C@H]1C[C@H]3[C@H](N(C)C)C(O)=C(C(N)=O)C(=O)[C@@]3(O)C(O)=C1C2=O` [Minacycline], in experiment [1], the MIC amounted to 8 µg/mL and the “MIC of antibiotic, +FNQ3” value lay within 2 to 4 µg/mL. Also, in [2], the MIC was determined as 0.25 µg/mL and the “MIC of antibiotic, +FNQ3” value is 0.25 µg/mL.
As to `CN(C)CCn1nnnc1SCC1=C(C(=O)O)N2C(=O)[C@@H](NC(=O)Cc3csc(N)n3)[C@H]2SC1` [Cefotiam], the MIC in experiment [1] was 32 µg/mL; in experiment [2], 0.25 to 0.5 µg/mL. In addition, the “MIC of antibiotic, +FNQ3” value was 16 to 32 µg/mL in experiment [1] and 0.25 µg/mL in [2].
For the compound `CC[C@H]1OC(=O)[C@H](C)[C@@H](O[C@H]2C[C@@](C)(OC)[C@@H](O)[C@H](C)O2)[C@H](C)[C@@H](O[C@@H]2O[C@H](C)C[C@H](N(C)C)[C@H]2O)[C@](C)(O)C[C@@H](C)/C(=N\OCOCCOC)[C@H](C)[C@@H](O)[C@]1(C)O` [Roxithromycin], in [1], the MIC came to 16 µg/mL and the “MIC of antibiotic, +FNQ3” value stood at 16 µg/mL. In [2], the MIC came to 1 µg/mL and the “MIC of antibiotic, +FNQ3” value was determined as 1 µg/mL.
